According to patent EP0174085A2, “Bisarylamides of N,N'-di-[1-aminoalkyl-2]-alkylene diamines having a cardiovascular activity” (BEECHAM - WUELFING GmbH & Co. KG, priority 1984, dated 1986):

Experiments:
anaesthetized rats [1] = assay: Haemodynamic profile in anaesthetized rats; type: in vivo; design: Dhr20 = i.v. dose which reduces heart rate by ca. 20%: unit not given here; details: for %effect of Dhr20 on LVP (systolic left ventricular pressure) / %effect of Dhr20 on dp/dtmax / %effect of Dhr20 on BP (mean arterial blood pressure): at Dhr20, i.v.; for %effect of Dhr20 on LVP (systolic left ventricular pressure) / %effect of Dhr20 on dp/dtmax / Dhr20 = i.v. dose which reduces heart rate by ca. 20% / %effect of Dhr20 on BP (mean arterial blood pressure): rat; for %effect of Dhr20 on dp/dtmax: left ventricular dp/dt max
Excerpt: The effect of compounds of the invention on heart rate, systolic left ventricular pressure, left ventricular dp/dt max and mean arterial blood pressure was investigated so as to obtain information on the anti-anginal potential of these compounds, by reducing the oxygen demand of the ischaemic heart.

conscious rabbits = assay: Antiarrhythmic activity, suprathreshold cardiac electric stimulation in conscious rabbits; type: in vivo
Protocol: Compound (El) infused at 2.5mg/min in the ear vein of conscious rabbits inhibited the arrhythmogenic effect of suprathreshold cardiac electric stimulation. The therapeutic index, i.e. the ratio between the dose of compound required to produce A-V-block (8 mg/kg) and that dose which gave an antiarrhythmic effect (0.9mg/kg) was 8.9.

anaesthetized rats [2] = assay: Antianginal activity, vasopressin-induced ST-segment elevation in the ECG, i.v.; type: in vivo; details: Rattus norvegicus, iv, reduction of ST-segment elevation after i.v. 1 I.U./kg vasopressin, read-out: minimum effective i.v. antianginal dose
anaesthetized rats [3] = assay: Vasopressin test in anaesthetized rats (coronary spasm), intraduodenal; type: in vivo; details: 32mg/kg i.d.
Protocol: Vasopressin (Lysopressin: 1 I.U./kg) was administered intravenously in order to provoke coronary spasm. Compound (El) was active against coronary spasm at a dose of 32mg/kg i.d. with a duration of action greater than 2 hours. The ability of test compounds to reduce coronary spasm is taken as a measure of their anti-anginal potential in spasm - induced angina pectoris. (Ref. Drug.Res. 33(11), 8,1117-1121 (1983)).

[4] = system: guinea-pig papillary muscle; assay: Ca++-antagonistic activity, calcium dependent action potentials in papillary muscle in vitro; type: cell-based; details: 1-3 x 10^-6M; 34+ 1°C; krebs medium containing 26 nM K+ and 0.5 nM BaCl2
Protocol: In guinea-pig papillary muscle (34+ 1°C) in vitro, the Compound (El) (1-3 x 10-^6M) depressed the maximal rate of rise (Vmax) of calcium dependent action potentials evoked in krebs medium containing […] K^+ and […], BaC12. These action potentials were recorded using conventional intracellular techniques.

SMILES | %effect of Dhr20 on LVP (systolic left ventricular pressure) (anaesthetized rats [1]) [%] | %effect of Dhr20 on dp/dtmax (anaesthetized rats [1]) [%] | i.v. duration of action on heart rate (rat) (anaesthetized rats [1]) [min] | Dhr20 = i.v. dose which reduces heart rate by ca. 20% (anaesthetized rats [1]) | minimal effective dose (conscious rabbits; Oryctolagus cuniculus, iv, infusion in the ear vein, conscious rabbits, read-out: dose which gave an antiarrhythmic effect) [mg/kg] | arrhythmogenic effect of suprathreshold cardiac electric stimulation (conscious rabbits; infused at 2.5mg/min in the ear vein, conscious rabbits) | dose of compound required to produce A-V-block (conscious rabbits; infusion in the ear vein, conscious rabbits) [mg/kg] | therapeutic index (conscious rabbits; ratio of A-V-block dose to antiarrhythmic dose) | minimal effective dose (anaesthetized rats [2]) [mg/kg] | duration of action (anaesthetized rats [3]; against coronary spasm) | activity against coronary spasm (anaesthetized rats [3]; vasopressin (Lysopressin) 1 I.U./kg i.v.) | maximal rate of rise (Vmax) of calcium dependent action potentials [4] | %effect of Dhr20 on BP (mean arterial blood pressure) (anaesthetized rats [1]) [%]
CCC(CNC(=O)c1cc(OC)c(OC)c(OC)c1)N(C)CCN(C)C(CC)CNC(=O)c1cc(OC)c(OC)c(OC)c1 (stereo not drawn) [Compound E1, N,N'-dimethyl-N,N'-di-[1-(3,4,5-trimethoxybenzamido)-butyl-(2)]-ethylenediamine] | -17 | -24 | 5 | 3.2 | 0.9 | inhibited | 8 | 8.9 | 0.2 | greater than 2 hours | active | depressed | 
CCC(CNC(=O)c1cc(Cl)cc(Cl)c1)N(C)CCN(C)C(CC)CNC(=O)c1cc(Cl)cc(Cl)c1 (stereo not drawn) [Compound E2, N,N'-dimethyl-N,N'-di-(2-[1-(3,5-dichlorobenzamido)] -butyl)-ethylene-diamine] |  | -21 | 15 | 3.2 |  |  |  |  |  |  |  |  | -7
CCC(CNC(=O)c1cccc(Cl)c1)N(C)CCN(C)C(CC)CNC(=O)c1cccc(Cl)c1 (stereo not drawn) [Compound E3] | -2 | -15 | 10 | 1.6 |  |  |  |  |  |  |  |  | -16
CCC(CNC(=O)c1ccc(C#N)cc1)N(C)CCN(C)C(CC)CNC(=O)c1ccc(C#N)cc1 (stereo not drawn) [Compound E7] | -5 | -15 | 5 to 10 | 3.2 |  |  |  |  |  |  |  |  | -6
CC[C@@H](CNC(=O)c1cc(OC)c(OC)c(OC)c1)N(C)CCN(C)[C@@H](CC)CNC(=O)c1cc(OC)c(OC)c(OC)c1 [Compound E8] | -29 | -36 |  | 3.2 |  |  |  |  |  |  |  |  | -30
CCC(CNC(=O)c1ccc(OC)c(OC)c1)N(C)CCN(C)C(CC)CNC(=O)c1ccc(OC)c(OC)c1 (stereo not drawn) [Compound E11] | -4 | -7 | 5 to 10 | 3.2 |  |  |  |  |  |  |  |  | -2
CCC(CNC(=O)c1ccc2c(c1)OCO2)N(C)CCN(C)C(CC)CNC(=O)c1ccc2c(c1)OCO2 (stereo not drawn) [Compound E12] | -8 | -11 | 10 to 15 | 1.6 |  |  |  |  |  |  |  |  | -4
COc1cc(C(=O)NCC2CCCCN2CCN2CCCCC2CNC(=O)c2cc(OC)c(OC)c(OC)c2)cc(OC)c1OC (stereo not drawn) [Compound E16] | -17.3 | -32 | 10 | 6.4 |  |  |  |  |  |  |  |  | -17
CCC(CNC(=O)c1ccncc1)N(C)CCN(C)C(CC)CNC(=O)c1ccncc1 (stereo not drawn) [Compound E29] | -6 | -2 | 10 | 12.8 |  |  |  |  |  |  |  |  | -10
CCC(CNC(=O)c1cccnc1)N(C)CCN(C)C(CC)CNC(=O)c1cccnc1 (stereo not drawn) [Compound E30, N,N'-dimethyl-N,N'-di[1-nicotinoylamido-butyl-(2)]-ethylene-diamine] | -9 | -15 | 10 | 12.8 |  |  |  |  |  |  |  |  | -14
CCC(CNC(=O)c1cc(OC)c(OC)c(OC)c1)N1CCC(N(C)C(CC)CNC(=O)c2cc(OC)c(OC)c(OC)c2)CC1 (stereo not drawn) [Compound E38, 1-[1-(3,4,5-trimethoxybenzamido-butyl-(2))]-4-N-methyl-N-[1-(3,4,5-trimethoxybenzamido-butyl-(2))]-amino-piperidine] | -7 | -32 | 10 to 15 | 12.8 |  |  |  |  |  |  |  |  | -6
